# Tested on: K. pneumoniae
# Assay: Minimal inhibitory concentration (MIC), Example V
# Type: cell-based
# Conditions: Klebsiella pneumoniae
# Experimental: MINIMAL INHIBITORY CONCENTRATION OF 2-AMINO-2-METHYL-1-PROPYL
# ^a Minimal inhibitory concentration expressed in parts per million
# sequence inhibited the test organism at the higher concentrations.
# THE ANTIBACTERIAL SCREEN - EXAMPLE V
# Klebsiella pneumoniae ATCC# 10031
# THE ANTIBACTERIAL SCREEN - EXAMPLES W - Z (Autotiter IV)
# (a) Compounds. All compounds to be screened are weighed (approx. 10 mg) on the day preceding the test date. Each compound is solubilized on the day of assay in appropriate solvent and diluted automatically in the Autotiter IV with distilled water (buffer can be employed here also).
# Bacteria: Staphylococcus aureas Smith (or 209), Escherichia coli AB 1932-1, 1100/B22 and Vogel, Streptococcus pyogenes C203 Salmonella typhimurium 14028, Bacillus subtilis 6051-1, Klebsiella pneumoniae 10031, Pseudomonas aeruginosa 9027, Bordetella bronchiseptica 4617 and Staphylococcus epidermidis 12228.
# (c) Inocula. Prior to utilization in the Autotiter IV, all bacteria are cultured for 18-20 hr. (37° C) in tryptose phosphate broth (TP), except, S. pyogenes C203, which is cultured in Brain Heart Infusion broth plus 10% normal horse serum. Immediately prior to testing, each culture is adjusted to an optical density of 0.10 (650 nm), employing a Bausch & Lomb Spectronic 20, and diluted subsequently into double strength medium to approximately 2 × 10^5 viable organisms per ml.
# 1. An automated injector system dispenses 0.05 ml of diluent (sterile H2 O or buffer) to all cups of the autotiter trays from rows 2 through 7.
# 2. The loops (for sequential dilutions of the compounds are moistened by immersion into 70% ethyl alcohol. After removal of excess alcohol by blotting, the loops are moved to the first row of cups in the autotray containing 0.10 ml of the compound to be diluted and tested (usually, this initial concentration is 500 to 1000 mcg/ml, but can be varied upward or downward). The loops are lowered and sequentially transfer the diluted solutions of the compound through row 7.
# Immediately after each dilution is made, each cup is automatically inoculated with 0.05 ml of the appropriate test organism. This inoculation derives from a second injector system containing the organism in double-strength medium. The total operation consists of the automatic dilution of a single compound in each of 8 rows of the Autotiter try.
# After these operations, we reverse the tray and a second compound is diluted over the other one-half of the tray and inoculated, subsequently, with 8 organisms. Thus, for each Autotiter Tray, two compounds are screened against 8 different organisms at dilutions ranging from 1:2 to 1:128.
# (e) Incubation. The inoculated Autotiter trays are incubated at 37° C for 18 - 20 hr. At the end of this period, each tray is examined for the presence or absence of growth (turbidity). The lowest concentration of the compound inhibiting growth is recorded as the minimal inhibitory concentration (MIC).
smiles,measurement,value
"CC(C)(COC(=O)C(C)(C)C)NCl [IV c, 2-N-Chloroamino-2-methyl-1-propyl 2,2-dimethylproprionate]",MIC,> 250 µg/mL
